Test results: patent US20090047368A1, “Polymeric polyphenol extracted from fermented tea, therapeutic agent for mitochondrial disease, preventive/therapeutic agent for diabetes mellitus, and food or beverage” (University Of Tsukuba, priority 2004, published 2009)

Tested on: B6 mice (C57BL)
Test: Blood glucose in B6 mice, high- versus low-molecular-weight polyphenols
Assay type: in vivo
Details: 0.27 mg/day intraperitoneal, 15 days
Procedure: The procedures for the experiment were similar to those employed in Example 7. In this experiment, B6 mice (C57BL; purchased from CLEA Japan, Inc.) were used. […] The low-molecular-weight polyphenol group was given a PBS solution of epicatechin daily through intraperitonal injection at a dose of 0.27 mg/day. Blood samples were collected on the first day of the administration and 15 days thereafter for the measurement of blood glucose levels. […] The horizontal axis in the figure represents the number of days from the start of the administration. The vertical axis represents percentage (%) changes in blood glucose based on the blood glucose level on the first day at 100.

Oc1cc(O)c2c(c1)O[C@H](c1ccc(O)c(O)c1)[C@H](O)C2 [low-molecular-weight polyphenols, epicatechin]
decrease in blood glucose relative to the first day (100): little change
